{"source": "paper PMC9167041", "about": "(Computational and Structural Biotechnology Journal, 2022)", "target": "SARS-CoV-2 M^pro (Severe acute respiratory syndrome coronavirus 2, UniProt P0DTD1)", "test": "SARS-CoV-2 Mpro in vitro enzyme-based assay", "type": "biochemical", "conditions": "compound at 10 μM", "data": [{"compound": "C=C1CCC2[C@](C)(COC(C)=O)[C@H](OC(C)=O)CC[C@@]2(C)[C@@H]1C[C@H](SC(=S)N1CCN(C(=O)C2COc3ccccc3O2)CC1)C1=CCOC1=O", "note": "(stereo partly shown) [3j]", "values": [{"measurement": "inhibition of SARS-CoV-2 M^pro", "result": "rather low inhibitory effect"}]}]}
